The values below come from ChEMBL document CHEMBL4342421, “Current scenario of tetrazole hybrids for antibacterial activity” (Eur J Med Chem, 2019).

In general, MIC refers to the lowest concentration found to suppress growth. A low value points to a more susceptible organism. What is called IC50 is the midpoint of a concentration-inhibition curve.

Values after ≈ are worked out from the molar mass of the structure shown.

Assay [1] deals with Escherichia coli. Put plainly: Antimicrobial activity against Escherichia coli assessed as zone of inhibition at 600 ug/ml after 24 hrs by disk diffusion method. In kind it is functional. The settings on record: read-out: IZ.
Assay [2] concerns Staphylococcus aureus. Kind of assay: Antimicrobial activity against Staphylococcus aureus. In kind it is functional.
A further assay has as its system Klebsiella pneumoniae. Kind of assay: Antimicrobial activity against Klebsiella pneumoniae. In kind it is functional.
The next assay relates to Proteus vulgaris. Put plainly: Antimicrobial activity against Proteus vulgaris. In kind it is functional.
In another assay the test system is Streptococcus pyogenes. Put plainly: Antimicrobial activity against Streptococcus pyogenes. In kind it is functional.
Assay [3] relates to Escherichia coli. Put plainly: Antimicrobial activity against Escherichia coli. In kind it is functional.
Assay [4] concerns Pseudomonas aeruginosa. Put plainly: Antimicrobial activity against Pseudomonas aeruginosa. In kind it is functional.
Assay [5] concerns Bacillus subtilis. Put plainly: Antimicrobial activity against Bacillus subtilis. In kind it is functional.
The test system of assay [6] is Bacillus subtilis. Kind of assay: Potency index, ratio of streptomycin MIC to test compound MIC for antimicrobial activity against Bacillus subtilis. In kind it is functional.
Assay [7] concerns Escherichia coli. Put plainly: Potency index, ratio of streptomycin MIC to test compound MIC for antimicrobial activity against Escherichia coli. In kind it is functional.
The test system of assay [8] is Pseudomonas aeruginosa. Kind of assay: Potency index, ratio of streptomycin MIC to test compound MIC for antimicrobial activity against Pseudomonas aeruginosa. In kind it is functional.
The next assay relates to Salmonella typhimurium. Put plainly: Antimicrobial activity against Salmonella typhimurium. In kind it is functional, Salmonella enterica subsp. enterica serovar Typhimurium. The settings on record: Salmonella enterica.
In a further assay the test system is Listeria monocytogenes. Kind of assay: Antimicrobial activity against Listeria monocytogenes. In kind it is functional.
The test system of another assay is Enterococcus faecalis. Kind of assay: Antimicrobial activity against Enterococcus faecalis. In kind it is functional.
A further assay relates to Candida albicans. Kind of assay: Antifungal activity against Candida albicans. In kind it is functional.
A further assay has as its system Nakaseomyces glabratus. Kind of assay: Antifungal activity against Candida glabrata. In kind it is functional.
A further assay concerns Candida tropicalis. Put plainly: Antifungal activity against Candida tropicalis. In kind it is functional.
In a further assay the test system is Pichia kudriavzevii. Kind of assay: Antifungal activity against Candida krusei.
Assay [9] has as its system Staphylococcus aureus. Put plainly: Antimicrobial activity against Staphylococcus aureus assessed as zone of inhibition at 100 ug/ml. In kind it is functional. The settings on record: read-out: IZ.
Assay [10] deals with Escherichia coli. Put plainly: Antimicrobial activity against Escherichia coli assessed as zone of inhibition at 100 ug/ml. In kind it is functional. Conditions: read-out: IZ.
For assay [11], the system named is Bacillus subtilis. Kind of assay: Antimicrobial activity against Bacillus subtilis assessed as zone of inhibition at 100 ug/ml. In kind it is functional. The settings on record: read-out: IZ.
A further assay concerns Streptococcus. Kind of assay: Antimicrobial activity against Streptococcus assessed as zone of inhibition at 100 ug/ml. In kind it is functional. Conditions: read-out: IZ.
A further assay deals with NIH3T3. Kind of assay: Cytotoxicity against mouse NIH/3T3 cells assessed as reduction in cell viability. In kind it is cell-based.
The test system of another assay is C6. Put plainly: Anticancer activity against rat C6 cells. In kind it is functional, cell-based.
The test system of another assay is Aspergillus niger. Kind of assay: Antifungal activity against Aspergillus niger. In kind it is functional.
The test system of the next assay is Proteus mirabilis. Kind of assay: Antimicrobial activity against Proteus mirabilis. In kind it is functional.
For assay [12], the system named is Staphylococcus epidermidis. Kind of assay: Antimicrobial activity against Staphylococcus epidermidis. In kind it is functional.

With `c1ccc2c(c1)sc1nnnn12`, the zone of inhibition at 600 µg/mL with Escherichia coli [1] fell in the range of 15 to 20 mm.

As to `O=C(O)c1cn(C2CC2)c2cc(N3CCN(C(=O)Cn4nnnc4S)CC3)c(F)cc2c1=O`, the MIC in the assay with Staphylococcus aureus [2], with Klebsiella pneumoniae, with Proteus vulgaris and with Streptococcus pyogenes was 2 to 128 µg/mL (≈ 4.22 to 270 µM) throughout.

Turning to `O=c1c(OCc2nnn[nH]2)c(-c2ccc(F)cc2)oc2ccccc12`, the MIC with Escherichia coli [3], against Pseudomonas aeruginosa [4], in the assay on Staphylococcus aureus [2] and in the assay on Bacillus subtilis [5] was 100 µg/mL (≈ 296 µM) in each case. In addition, the Ratio in the assay on Bacillus subtilis [6], with Escherichia coli [7] and in the assay with Pseudomonas aeruginosa [8] was 2 - 4 each time.

`Cn1c(-c2ccc(NC(=O)CSc3nnnn3-c3ccccc3)cc2)nc2cc(Cl)c(Cl)cc21`: the minimal inhibitory concentration (MIC) against Escherichia coli [3], against Pseudomonas aeruginosa [4], against Staphylococcus aureus [2], in the assay on Bacillus subtilis [5], against Klebsiella pneumoniae and with Proteus vulgaris was 12.5 to 400 µg/mL (≈ 24.5 to 784 µM) throughout. The minimum inhibitory concentration (MIC) in the assay on Salmonella typhimurium, against Listeria monocytogenes, with Enterococcus faecalis, in the assay with Candida albicans, with Nakaseomyces glabratus and against Candida tropicalis was 12.5 to 400 µg/mL (≈ 24.5 to 784 µM) in each case.

Take `Fc1cc2[nH]c(SCc3ccc(-c4ccccc4-c4nnnn4C(c4ccccc4)(c4ccccc4)c4ccccc4)cc3)nc2cc1-n1cncn1`: the MIC with Escherichia coli [3], in the assay with Pseudomonas aeruginosa [4], against Staphylococcus aureus [2], with Bacillus subtilis [5], with Candida albicans and against Nakaseomyces glabratus was 16 to 64 µg/mL (≈ 22.5 to 89.9 µM) in each case. The minimum inhibitory concentration (MIC) against Candida tropicalis and with Pichia kudriavzevii was 16 to 64 µg/mL (≈ 22.5 to 89.9 µM) each time.

In the case of `Clc1cccc(-c2nnc(SCc3ccc(-c4ccccc4-c4nn[nH]n4)cc3)o2)c1`, the zone of inhibition at 100 µg/mL in the assay on Staphylococcus aureus [9], with Escherichia coli [10], in the assay with Bacillus subtilis [11] and in the assay on Streptococcus was 20 to 27 mm throughout.

`O=C(CSc1nnnn1-c1ccccc1)N/N=c1\scc(-c2ccccc2)n1-c1ccccc1`: the IC50 in the assay on NIH3T3 was found to be 417 µg/mL (≈ 858 µM); in the assay on C6, 8.3 µg/mL (≈ 17.1 µM).

With `COc1ccc(C2=NN(C(N)=S)C(c3cc4cc(C)ccc4n4nnnc34)C2)cc1` (configuration not stated), the MIC in the assay on Escherichia coli [3], against Pseudomonas aeruginosa [4], with Staphylococcus aureus [2], with Candida albicans, with Aspergillus niger and with Proteus mirabilis was 3.12 to 25 µg/mL (≈ 7.49 to 59.9 µM) throughout. Besides, the minimum inhibitory concentration (MIC) in assay [12] is 3.12 to 25 µg/mL (≈ 7.49 to 59.9 µM).

`Cn1nnnc1SCC(=O)Nc1ccc(-c2nc3cc(Cl)c(Cl)cc3n2C)cc1`: the minimum inhibitory concentration (MIC) with Escherichia coli [3], with Pseudomonas aeruginosa [4], in the assay with Staphylococcus aureus [2], with Bacillus subtilis [5], against Klebsiella pneumoniae and against Proteus vulgaris was 12.5 to 400 µg/mL (≈ 27.9 to 892 µM) throughout. For the same compound, the minimal inhibitory concentration (MIC) against Salmonella typhimurium, against Listeria monocytogenes, against Enterococcus faecalis, in the assay with Candida albicans, against Nakaseomyces glabratus and in the assay on Candida tropicalis was 12.5 to 400 µg/mL (≈ 27.9 to 892 µM) each time.
